Source: patent US20170174734A1, “DR6 Receptor Mediates the Leukemia Differentiation Activity of Angiocidin: A Potent Anti-Tumor Peptide” (Temple University-Of The Commonwealth System of Higher …, priority 2014, published 2017)

Experiments:
[1] = molecular target: T1, DR6 extracellular domain-FC chimera (Homo sapiens, UniProt O75509); test: ELISA binding of biotinylated angiocidin to plate-coated DR6 extracellular-Fc chimeric recombinant protein; details: for Blocking of binding of biotinylated angiocidin to DR6: 1 μg/ml biotinylated angiocidin, 50 μg/ml 5 mer, 10 μg/ml anti-DR6 IgG or 50 μg/ml unlabeled angiocidin
T1 construct: wells of a microtiter plate were coated with 100 ng of a DR6 extracellular-Fc chimeric recombinant protein overnight
T1 sequence (O75509 42-349 limits assumed): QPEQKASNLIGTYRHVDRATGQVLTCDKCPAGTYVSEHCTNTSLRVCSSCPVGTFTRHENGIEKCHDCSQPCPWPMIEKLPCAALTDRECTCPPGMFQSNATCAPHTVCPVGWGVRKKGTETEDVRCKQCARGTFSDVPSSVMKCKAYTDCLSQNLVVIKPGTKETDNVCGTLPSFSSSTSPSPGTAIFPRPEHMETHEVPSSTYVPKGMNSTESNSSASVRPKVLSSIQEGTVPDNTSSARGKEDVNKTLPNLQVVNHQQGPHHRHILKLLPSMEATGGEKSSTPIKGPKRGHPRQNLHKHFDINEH
Protocol: (§1) The next experiment was performed to characterize the binding of DR6 with angiocidin. Briefly, wells of a microtiter plate were coated with 100 ng of a DR6 extracellular-Fc chimeric recombinant protein overnight. Wells were then washed in PBS and blocked with 1% BSA. Blocked wells were incubated with shaking with 200 μl of PBS containing various concentrations of biotinylated angiocidin for one hour. Wells were than washed and incubated with shaking with a 1:10,000 dilution of a 1 mg/ml solution of streptavidin-HRP in PBS. Wells were washed 3 times in PBS and bound streptavidin HRP was detected by incubation of the wells with 100 μl of 3,3′,5,5′-tetramethylbenzidine (TMB) with shaking for 5 min. Reactions were stopped by the addition of 50 μl of 1 M HCl and the color read in an ELISA reader at 450 nm.
(§2) The next experiment was performed to further characterize the binding between DR6 and angiocidin. It was observed that the binding of angiocidin to DR6 was blocked with anti-DR6 IgG, 5 mer peptide, and unlabeled angiocidin. Wells contained either 1 μg/ml of biotinylated angiocidin alone or 50 μg/ml 5 mer, 10 μg/ml of anti-DR6 IgG or 50 μg/ml unlabeled angiocidin.

[2] = test system: THP-1 cells; test: Differentiation marker expression (CD14, CD54, CD36) in THP-1 cells, flow cytometry; type: cell-based; details: for Leukemia cell differentiating activity, comparison of 5 mer, 20 mer and angiocidin / Upregulation of CD54 in THP-1 leukemia cells: FIGS. 8-11; for Upregulation of CD54 in THP-1 cells: after 24 hours incubation, FIG. 8
Protocol: FIG. 10 is an image showing the comparison between angiocidin, the 5 mer, and a 20 mer (F86-H105) […]; SEQ ID NO: 2 on the expression of CD14 and CD54. Briefly, THP-1 cells were grown in the presence of various concentrations of peptide overnight and then the cells were assayed by flow cytometry for expression of CD14 and CD54.
FIG. 11 is an image showing the comparison between the 20 mer, 5 mer and angiocidin on the expression of CD14 and CD54 up-regulation in THP-1 cells and two primary leukemia cells. Cells were treated with peptide at 10 ug/ml for 12 hours and CD14 and CD54 were measured by flow cytometry.
THP-1 cells were cultured in RPMI media for 24 hours containing no peptides or angiocidin or 2, 10 μg/ml of either angiocidin, 5 mer, peptide or a control peptide, r5 mer having the reverse sequence of the 5 mer. Marker expression was measured by flow cytometry.

[3] = test system: three different leukemia cell lines; test: Cytokine upregulation in three leukemia cell lines; type: cell-based
Protocol: Experiments were also performed comparing the leukemia cell differentiating activity of the 5 mer, the 20 mer and angiocidin.

[4] = test system: THP-1 cells; test: Binding of Alexa Fluor 488 labeled angiocidin to THP-1 cells, flow cytometry
Protocol: Experiments were performed to evaluate the interaction between DR-6 and angiocidin. […] Briefly, THP-1 cells were plated in 6 well dishes in serum-free media. Cells were untreated or treated for 30 min at 37° with either 2.5 μg/ml of Angiocidin labeled with Alexa Fluor 488 (Angio-488), Angio-448+10 μg/ml control rabbit IgG, Angio-488+10 μg/ml rabbit Anti-DR6 IgG, Angio-488+10 μg/ml unlabeled Angiocidin. Cells were washed twice in PBS and the percent positive Angio-488 measured by flow cytometry.

[5] = molecular target: T2, DR6 in whole extracts of THP-1 cells (Homo sapiens, UniProt O75509); test: Blot overlay of biotinylated angiocidin on SDS extracts of THP-1 cells; type: binding; details: 0.1 mg/ml biotinylated angiocidin, one hour
T2 construct: SDS detergent extracts of THP-1 cells were separated on SDS-PAGE and blotted onto PVD membranes; endogenous in cells; host or cells: THP-1 cells
T2 sequence (O75509 42-655): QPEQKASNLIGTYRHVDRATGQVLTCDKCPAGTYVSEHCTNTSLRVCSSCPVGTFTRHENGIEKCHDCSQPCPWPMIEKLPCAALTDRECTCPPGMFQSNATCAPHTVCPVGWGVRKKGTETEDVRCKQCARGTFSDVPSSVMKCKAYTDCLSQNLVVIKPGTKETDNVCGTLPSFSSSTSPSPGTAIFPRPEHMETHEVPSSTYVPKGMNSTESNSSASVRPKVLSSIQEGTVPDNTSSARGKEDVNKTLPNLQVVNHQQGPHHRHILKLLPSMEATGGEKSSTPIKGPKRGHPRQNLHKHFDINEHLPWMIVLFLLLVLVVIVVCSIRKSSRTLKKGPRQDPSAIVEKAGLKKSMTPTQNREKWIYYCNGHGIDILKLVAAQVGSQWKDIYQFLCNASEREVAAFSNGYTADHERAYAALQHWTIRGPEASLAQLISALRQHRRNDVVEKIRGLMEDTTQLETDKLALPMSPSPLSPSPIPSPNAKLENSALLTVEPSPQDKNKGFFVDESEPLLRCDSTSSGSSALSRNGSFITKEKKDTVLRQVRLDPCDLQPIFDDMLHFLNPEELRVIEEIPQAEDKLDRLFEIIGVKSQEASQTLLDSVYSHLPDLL
Protocol: Briefly, SDS detergent extracts of THP-1 cells were separated on SDS-PAGE and blotted onto PVD membranes. Membranes were washed in tris-buffered saline containing 0.1% Tween 20 detergent (TBS-T) and 1% BSA and incubated with 0.1 mg/ml of biotinylated angiocidin in the presence or absence of 10 μg/ml rabbit Anti-DR6 antibody. After incubation for one hour membranes were washed in TBS-T and incubated with 1:10,000 dilution of a 1 mg/ml solution of streptavidin HRP in PBS for 30 min. Membranes were then washed, treated with a chemiluminescent substrate for HRP and developed for chemiluminescence using X-ray film. In the panel on the right, recombinant DR6-Fc was used as the positive control.

[6] = molecular target: T3, death receptor-6 (DR6) (Homo sapiens, UniProt O75509); test: Binding strength of DR6 for angiocidin compared with previously reported binding proteins
T3 sequence (O75509 42-655): T2 sequence (O75509 42-655)

[7] = test system: THP-I leukemia cells; test: Blocking DR6 on THP-I leukemia cells: effect on the differentiating activity of angiocidin; type: cell-based; details: mediated by DR6
Source text: Additionally, the DR6 binding domain of angiocidin is located in a 5 amino acid sequence (ALKHR; SEQ ID NO: 1) present near the N-terminal domain of angiocidin. Accordingly, the 5 mer (ALKHR; SEQ ID NO: 1) is a potentially non-toxic alternative treatment of AML

[8] = molecular target: T4, DR6 extracellular-Fc chimeric recombinant protein (UniProt O75509 42-349, limits assumed); test: competition ELISA on coated DR6 extracellular domain-Fc, 50 ug/ml 5 mer against 1 ug/ml biotinylated angiocidin
T4 construct: extracellular domain; also called DR6 extracellular domain-FC chimera; DR6-Fc; not shown: Fc part
T4 sequence (looked up): T1 sequence (O75509 42-349 limits assumed)
Protocol: as §1, with “nm. It was observed that angiocidin binds the extracellular domain of DR6 (DR6 extracellular domain-FC chimera) in vitro (FIG. 2).” for “nm.”
as §2

[9] = molecular target: T4, DR6 extracellular-Fc chimeric …; test: not stated (opening statement of Example 1)

ALKHR [5 mer]
Blocking of binding of biotinylated angiocidin to DR6 [1]: blocked
Leukemia cell differentiating activity, comparison of 5 mer, 20 mer and angiocidin [2]: nearly identical leukemia cell differentiating activities
Upregulation of CD54 in THP-1 leukemia cells [2]: upregulate CD54
Differentiation activity measured by upregulation of CD14, CD54, CD36 ([2]; THP-1 cells, RPMI, 24 hours, 2, 10 μg/ml): mimics the differentiation activity of angiocidin
Upregulation of CD54 in THP-1 cells [2]: upregulate CD54
Upregulation of cytokine panel [3]: upregulate a similar panel of cytokines

Angio-488: Angiocidin labeled with Alexa Fluor 488 [reference compound]
Affinity for cell bound DR6 after labeling with Alexa Fluor 488 ([4]; inferred from competition by unlabeled angiocidin): did not alter its affinity for cell bound DR6

FCTGIRVAHLALKHRQGKNH [20 mer, 20 mer peptide of the anti-tumor domain of angiocidin]
Leukemia cell differentiating activity, comparison of 5 mer, 20 mer and angiocidin [2]: nearly identical leukemia cell differentiating activities
Upregulation of CD54 in THP-1 leukemia cells [2]: upregulate CD54
Upregulation of cytokine panel [3]: upregulate a similar panel of cytokines

angiocidin: protein originally isolated from lung carcinoma, receptor for thrombospondin-1, inhibitor of angiogenesis and tumor cell proliferation
Inhibition of binding of Angio-488 to THP-1 cells (percent positive Angio-488) ([4]; 2.5 μg/ml Angio-488 plus 10 μg/ml competitor, 30 min at 37°, serum-free media): competed with the binding of Angio-488
Binding of biotinylated angiocidin to the extracellular domain of DR6 ([1]; 100 ng DR6-Fc coated, various concentrations, one hour, read at 450 nm): binds the extracellular domain of DR6
Blocking of binding of biotinylated angiocidin to DR6 [1]: blocked
Binding of angiocidin to DR6 in whole extracts of THP-1 cells [5]: binds to DR6 in whole extracts of THP-1 cells
Leukemia cell differentiating activity, comparison of 5 mer, 20 mer and angiocidin [2]: nearly identical leukemia cell differentiating activities
Upregulation of CD54 in THP-1 leukemia cells [2]: upregulate CD54
Upregulation of CD54 in THP-1 cells [2]: upregulate CD54
Upregulation of cytokine panel [3]: upregulate a similar panel of cytokines
Binding strength of DR6 for angiocidin relative to other reported binding proteins and peptides [6]: more than 100 times
Differentiating activity on THP-I leukemia cells [7]: transforms THP-I leukemia cells into normal macrophage-like cells

B1: 5 mer (ALKHR peptide) (peptide)
peptide: ALKHR
notes: Five-residue peptide from angiocidin; also called Angio-pep; 5 mer peptide
binding result [8]: binds

B2: Angiocidin (ligand, UniProt P55036 1-377, looked up)
chain: MVLESTMVCVDNSEYMRNGDFLPTRLQAQQDAVNIVCHSKTRSNPENNVGLITLANDCEVLTTLTPDTGRILSKLHTVQPKGKITFCTGIRVAHLALKHRQGKNHKMRIIAFVGSPVEDNEKDLVKLAKRLKKEKVNVDIINFGEEEVNTEKLTAFVNTLNGKDGTGSHLVTVPPGPSLADALISSPILAGEGGAMLGLGASDFEFGVDPSADPELALALRVSMEEQRQRQEEEARRAAAASAAEAGIATTGTEDSDDALLKMTISQQEFGRTGLPDLSSMTEEEQIAYAMQMSLQGAEFGQAESADIDASSAMDTSEPAKEEDDYDVMQDPEFLQSVLENLPGVDPNNEAIRNAMGSLASQATKDGKKDKKEEDKK
modifications: Alexa Fluor 488 label (flow cytometry) or biotin label (ELISA, blot); sites not stated; also used unlabeled as competitor
notes: Labelled and unlabelled preparations are kept as one molecule
fold stronger binding than the other binding proteins and peptides previously reported for angiocidin [9]: > 100 times
